Measurements published in patent publication US4150049A, “Esters of aromatic sulfonic acids” (The Government of the United States, priority 1977, dated 1979).
pKd, pKi: −log10 of the molar value.

Legend:
β-Trypsin = target: T1, β-Trypsin (Bos taurus, UniProt P00760); assay: Dixon plot competitive inhibition of hydrolysis of benzyloxy-lysine-nitrophenyl ester by β-trypsin; format: biochemical, bovine; conditions: Dixon plots, pH 6.0; Ki (M) x 10^5; read-out: Inhibition constant Ki (M) x 10^5, β-Trypsin
T1 construct: bovine β-trypsin; made in house
T1 sequence (P00760 24-246): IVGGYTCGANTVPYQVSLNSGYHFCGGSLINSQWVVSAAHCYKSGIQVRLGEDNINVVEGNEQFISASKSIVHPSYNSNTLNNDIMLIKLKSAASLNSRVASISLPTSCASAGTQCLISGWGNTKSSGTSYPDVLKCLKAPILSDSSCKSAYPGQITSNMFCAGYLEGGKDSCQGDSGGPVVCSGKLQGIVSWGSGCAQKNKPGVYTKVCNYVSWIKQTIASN
Method: (§1) In accordance with the present invention, nitrophenyl m- and p-amidinophenylmethanesulfonate were prepared, and these compounds were examined for their properties related to inhibition and inactivation of specific enzymes. With regard to the enzymes employed, bovine β-trypsin and thrombin were chromatographically purified by known procedures. Human plasminogen was purified from Cohn fraction III and activated with streptokinase. Human plasma kallikrein was purified about 1000-fold from activated Cohn fraction IV, by affinity chromatography. Human thrombin was prepared by the method of Miller and Copeland. Bovine chymotrypsin three times crystallized was also employed, along with streptokinase.
(§2) Enzyme concentrations were determined by titration with nitrophenyl p-guanidinobenzoate in the case of trypsin, plasmin, and thrombin, whereas chymotrypsin molarity was based on weight. Kallikrein concentration is expressed in enzyme units as measured in a pH-state by esterase action on 0.02 M tos-Arg-OMe in 0.06 M KCl at pH 7.85; one unit corresponds to the hydrolysis of 1 μmole of ester per minute under these conditions.
(§3) Optical density change at 340 nm was measured with double beam operation as described above. […]

α-Chymotrypsin = target: T2, α-Chymotrypsin (Bos taurus, UniProt P00766); assay: Dixon plot competitive inhibition of hydrolysis of benzyloxy-lysine-nitrophenyl ester by α-chymotrypsin; format: biochemical, bovine; conditions: Dixon plots, pH 6.0; Ki (M) x 10^5; read-out: Inhibition constant Ki (M) x 10^5, α-Chymotrypsin
T2 construct: α-Chymotrypsin
Method: as §1, §2, §3

Plasmin (human) = target: T3, Plasmin (human) (Homo sapiens, UniProt P00747); assay: Dixon plot competitive inhibition of esterase action of human plasmin; format: biochemical; conditions: Dixon plots, pH 6.0; Ki (M) x 10^5; read-out: Inhibition constant Ki (M) x 10^5, Plasmin (human)
T3 construct: from tissue; host or cells: Cohn fraction III (human plasma)
T3 sequence (P00747 581-810 limits assumed): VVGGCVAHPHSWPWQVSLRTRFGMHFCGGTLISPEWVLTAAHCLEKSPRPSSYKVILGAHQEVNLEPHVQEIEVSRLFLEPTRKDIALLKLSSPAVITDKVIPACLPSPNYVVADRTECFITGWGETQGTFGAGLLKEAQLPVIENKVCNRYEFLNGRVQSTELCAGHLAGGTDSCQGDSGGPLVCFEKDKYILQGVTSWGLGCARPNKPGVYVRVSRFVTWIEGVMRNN
T3 sequence (P00747 97-580 limits assumed): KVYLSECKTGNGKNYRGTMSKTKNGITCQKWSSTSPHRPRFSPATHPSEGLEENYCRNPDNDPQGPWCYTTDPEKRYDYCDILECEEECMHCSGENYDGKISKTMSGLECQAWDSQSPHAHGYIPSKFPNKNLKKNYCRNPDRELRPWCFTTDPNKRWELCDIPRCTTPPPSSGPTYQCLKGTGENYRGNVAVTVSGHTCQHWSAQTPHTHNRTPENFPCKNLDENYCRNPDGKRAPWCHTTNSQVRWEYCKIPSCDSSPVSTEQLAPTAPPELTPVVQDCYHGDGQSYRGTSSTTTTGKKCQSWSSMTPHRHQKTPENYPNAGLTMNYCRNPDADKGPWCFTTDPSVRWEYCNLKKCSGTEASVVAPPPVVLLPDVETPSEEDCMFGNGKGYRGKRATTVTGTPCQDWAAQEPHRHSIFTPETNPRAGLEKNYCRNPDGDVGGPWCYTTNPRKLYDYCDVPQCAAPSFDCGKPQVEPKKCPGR
Method: as §1, §2, §3

[1] = target: T4, Plasma kallikrein (human) (Homo sapiens, UniProt P03952); assay: Dixon plot competitive inhibition of esterase action of human plasma kallikrein; format: biochemical; conditions: Dixon plots, pH 6.0; Ki (M) x 10^5; read-out: Inhibition constant Ki (M) x 10^5, Plasma kallikrein (human)
T4 construct: from tissue
T4 sequence (P03952 391-638 limits assumed): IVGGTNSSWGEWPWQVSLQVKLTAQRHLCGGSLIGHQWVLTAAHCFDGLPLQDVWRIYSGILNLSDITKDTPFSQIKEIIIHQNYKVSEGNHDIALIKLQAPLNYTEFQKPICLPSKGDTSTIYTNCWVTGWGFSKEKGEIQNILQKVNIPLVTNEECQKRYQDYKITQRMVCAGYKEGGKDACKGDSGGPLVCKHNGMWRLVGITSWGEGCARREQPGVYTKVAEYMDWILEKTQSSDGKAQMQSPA
T4 sequence (P03952 20-390 limits assumed): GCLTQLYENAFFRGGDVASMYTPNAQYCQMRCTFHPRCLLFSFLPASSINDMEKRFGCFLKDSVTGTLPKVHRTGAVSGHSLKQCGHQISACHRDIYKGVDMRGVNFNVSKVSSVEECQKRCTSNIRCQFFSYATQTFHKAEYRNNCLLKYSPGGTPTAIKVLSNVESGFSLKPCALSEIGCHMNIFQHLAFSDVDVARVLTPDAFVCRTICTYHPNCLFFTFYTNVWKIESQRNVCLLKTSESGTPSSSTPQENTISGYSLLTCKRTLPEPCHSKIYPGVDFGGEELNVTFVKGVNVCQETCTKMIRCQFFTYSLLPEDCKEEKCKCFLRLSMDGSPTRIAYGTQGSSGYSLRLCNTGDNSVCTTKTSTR
Method: as §1, §2, §3

thrombin = thrombin (Bos taurus, UniProt P00735); assay: presteady state kinetics of nitrophenol production by thrombin; format: biochemical, bovine
Method: as §1
The action of thrombin on nitrophenyl p-amidinophenylmethanesulfonate was also studied in 0.05 M sodium veronal buffer, pH 7.4 (with 0.02 M Ca^2+ + at a series of reagent concentrations to determine the possible formation of an intermediate complex as a step in the inactivation process. The apparatus was the same as above and presteady state nitrophenol production was analyzed for the calculation of k2 and KS. Concentrations of the p-isomer were 0.5, 1.0, 2.0, 2.5, 3.75, and 5.0×10^-4 M. One of the progress curves is shown in FIG. 1, with this graph representing the action of thrombin (3×10^-6 M) on the p-isomer, pH 8.3, 25° C., with stoichiometric nitrophenol release accompanying inactivation. Although the full chromogeneity of nitrophenol is not reached at this pH, the final value in each case was equal to that obtained in control titrations with NPGB.

Thrombin (bovine) = target: T5, Thrombin (bovine) (Bos taurus, UniProt P00735); assay: Dixon plot competitive inhibition of hydrolysis of benzyloxy-lysine-nitrophenyl ester by bovine thrombin; format: biochemical
T5 construct: made in house
Method: as §1, §2, §3

Thrombin (human) = target: T6, Thrombin (human) (Homo sapiens, UniProt P00734); assay: Dixon plot competitive inhibition of hydrolysis of benzyloxy-lysine-nitrophenyl ester by human thrombin; format: biochemical; conditions: Dixon plots, pH 6.0; Ki (M) x 10^5; read-out: Inhibition constant Ki (M) x 10^5, Thrombin (human)
T6 construct: made in house
Method: as §1, §2, §3

Ki (β-Trypsin) | Ki (α-Chymotrypsin) | Ki (Plasmin (human)) | Ki [1] | pKd (thrombin) | pKi (thrombin) | kinact (thrombin; presteady state kinetics, pH 7.4, read-out: rate constant for inactive enzyme formation, k2 (converted)) | pKi (Thrombin (bovine)) | Ki (Thrombin (human)) | SMILES
7e-05 M | 3.6e-05 M | 0.0005 M | 4.7e-05 M | 3.92 | 3.92 | 0.0193 s⁻¹ |  |  | N=C(N)c1ccc(CS(=O)(=O)Oc2ccc([N+](=O)[O-])cc2)cc1 [p-isomer]
9e-06 M | 1.3e-05 M | 4.2e-05 M | 1.9e-05 M |  |  |  | 3.38 | 5.3e-05 M | N=C(N)c1cccc(CS(=O)(=O)Oc2ccc([N+](=O)[O-])cc2)c1 [m-isomer]
